For test [1], the target named is T1, SIRT1 (Homo sapiens, UniProt Q96EB6).
T1 sequence (Q96EB6 1-747): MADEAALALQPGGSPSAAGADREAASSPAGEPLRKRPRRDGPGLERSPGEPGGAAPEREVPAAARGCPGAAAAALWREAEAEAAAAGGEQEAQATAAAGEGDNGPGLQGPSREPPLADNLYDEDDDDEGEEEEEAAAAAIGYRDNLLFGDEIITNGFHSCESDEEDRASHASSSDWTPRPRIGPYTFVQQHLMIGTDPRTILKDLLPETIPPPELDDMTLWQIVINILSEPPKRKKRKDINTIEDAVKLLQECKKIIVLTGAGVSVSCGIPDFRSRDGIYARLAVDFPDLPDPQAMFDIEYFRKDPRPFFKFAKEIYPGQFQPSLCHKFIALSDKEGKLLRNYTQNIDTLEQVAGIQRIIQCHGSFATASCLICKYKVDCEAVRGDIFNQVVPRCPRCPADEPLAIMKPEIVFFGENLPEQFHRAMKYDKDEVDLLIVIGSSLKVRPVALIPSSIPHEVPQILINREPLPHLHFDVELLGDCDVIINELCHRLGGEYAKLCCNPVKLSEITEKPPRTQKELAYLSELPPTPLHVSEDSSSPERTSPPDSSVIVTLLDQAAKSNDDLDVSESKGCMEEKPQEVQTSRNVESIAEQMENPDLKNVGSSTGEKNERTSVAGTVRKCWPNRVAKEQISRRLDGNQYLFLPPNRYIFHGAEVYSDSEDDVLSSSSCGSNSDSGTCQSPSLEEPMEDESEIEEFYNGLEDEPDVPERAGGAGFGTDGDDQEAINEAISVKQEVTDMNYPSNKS
Nature of the test: TAMRA based mass spectrometry assay of SIRT1 activity. Particulars: TAMRA assay; for TAMRA EC1.5 (μM): concentration giving 150% activation of SIRT1; for Emax: percent maximum fold activation, read-out: TAMRA % Fold Act. Type of test: biochemical. The method in brief:
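Recombinant N-terminal His-tagged human SIRT1 (10 nM, E. coli) incubated 25 min at 25 °C with 0.5 μM 5TMR-labelled p53-derived acetyl-peptide and 120 μM βNAD+ in Tris-acetate pH 8 buffer with DTT and 0.05% BSA, compound at varying concentrations. Stopped with formic acid; deacetylated peptide or OAADPR measured by mass spectrometry relative to DMSO controls.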

In test [2] the target is T1, SIRT1. The test can be described thus: Trp mass spectrometry assay of SIRT1 activity. The format is biochemical. Particulars: Trp assay; for Trp EC1.5 (μM): concentration giving 150% activation of SIRT1; for Emax: percent maximum fold activation, read-out: Trp % Fold Act. The method in brief:
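His-tagged SIRT1 expressed in E. coli BL21(DE3), 10 nM, incubated 25 min at 25° C. with 0.5 μM Ac-RHKK(Ac)W-NH2 peptide and 120 μM βNAD+ in 50 mM HEPES pH 7.5, […], 1 mM DTT, 0.05% BSA; formic acid stop. OAADPR or deacetylated peptide measured by mass spectrometry; EC1.5 and percent maximum activation versus DMSO control.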

Molecules are shown by their SMILES.

Consider `Cc1cnc(NC(=O)c2c(C)nc3ccc(-c4cccc(OC[C@H](O)CO)c4)nn23)s1` [Compound 823], for which, at SIRT1 [1], the “TAMRA EC1.5 (μM)” value is listed as “A (EC1.5<1 μM)” and the Emax is less than 350%. Besides, at SIRT1 [2], the “Trp EC1.5 (μM)” value is “A (EC1.5<1 μM)” and the Emax was less than 350%.

With `Cc1ncccc1NC(=O)c1c(C)nn2ccc(-c3ccccc3Br)nc12` [Compound 824], at SIRT1 [1], the “TAMRA EC1.5 (μM)” value is listed as “B (EC1.5 1-25 μM)” and the Emax was no less than 350%. On SIRT1 [2], the “Trp EC1.5 (μM)” value is listed as “A (EC1.5<1 μM)” and the Emax was no less than 350%.

With `Cc1cc(C)c(NC(=O)c2c(C)nn3ccc(-c4ccccc4Br)nc23)cn1` [Compound 826], at SIRT1 [1], the “TAMRA EC1.5 (μM)” value was “B (EC1.5 1-25 μM)” and the Emax was no less than 350%. For the same compound, at SIRT1 [2], the “Trp EC1.5 (μM)” value was “A (EC1.5<1 μM)” and the Emax is less than 350%.

Consider `Cc1cncc(NC(=O)c2c(C)nn3ccc(-c4ccccc4Br)nc23)c1` [Compound 827], for which, at SIRT1 [1], the “TAMRA EC1.5 (μM)” value is “A (EC1.5<1 μM)” and the Emax was no less than 350%. Further, on SIRT1 [2], the “Trp EC1.5 (μM)” value is given as “A (EC1.5<1 μM)” and the Emax was less than 350%.

As for `O=C(Nc1cnn2ccc(-c3ccccc3C(F)(F)F)nc12)c1cnc(O)cn1` [Compound 828], at SIRT1 [1], the “TAMRA EC1.5 (μM)” value is “A (EC1.5<1 μM)” and the Emax was no less than 350%. Moreover, at SIRT1 [2], the “Trp EC1.5 (μM)” value is recorded as “C (EC1.5>25 μM)” and the Emax is less than 350%.

For `Cc1cnc(NC(=O)c2c(C)nc3ccc(-c4ccccc4OC[C@H](O)CO)nn23)s1` [Compound 829], at SIRT1 [1], the “TAMRA EC1.5 (μM)” value is on record as “A (EC1.5<1 μM)” and the Emax is no less than 350%. At SIRT1 [2], the “Trp EC1.5 (μM)” value is “A (EC1.5<1 μM)” and the Emax was less than 350%.

With `O=C(Nc1cnn2ccc(-c3ccccc3C(F)(F)F)nc12)c1cc(O)ncn1` [Compound 830], on SIRT1 [1], the “TAMRA EC1.5 (μM)” value is recorded as “A (EC1.5<1 μM)” and the Emax is no less than 350%. Besides, at SIRT1 [2], the “Trp EC1.5 (μM)” value was “C (EC1.5>25 μM)” and the Emax was less than 350%.

As to `O=C(Nc1ccncc1F)c1cnc2ccc(-c3ccccc3OC[C@H](O)CO)nn12` [Compound 831], on SIRT1 [1], the “TAMRA EC1.5 (μM)” value was “B (EC1.5 1-25 μM)” and the Emax is no less than 350%. In addition, at SIRT1 [2], the “Trp EC1.5 (μM)” value is recorded as “B (EC1.5 1-25 μM)” and the Emax was less than 350%.

Regarding `Cc1cc(NC(=O)c2cnc3ccc(-c4ccccc4OC[C@H](O)CO)nn23)nc(C)n1` [Compound 832], on SIRT1 [1], the “TAMRA EC1.5 (μM)” value is “A (EC1.5<1 μM)” and the Emax is no less than 350%. For the same compound, on SIRT1 [2], the “Trp EC1.5 (μM)” value is “B (EC1.5 1-25 μM)” and the Emax is less than 350%.

With `O=C(Nc1ccncn1)c1cnc2ccc(-c3ccccc3OC[C@H](O)CO)nn12` [Compound 833], on SIRT1 [1], the “TAMRA EC1.5 (μM)” value is “B (EC1.5 1-25 μM)” and the Emax was no less than 350%. Moreover, on SIRT1 [2], the “Trp EC1.5 (μM)” value was “B (EC1.5 1-25 μM)” and the Emax is less than 350%.

The record behind these values is US9957271B2, “Substituted bicyclic aza-heterocycles and analogues as sirtuin modulators” (GlaxoSmithKline, LLC, priority 2012, dated 2018).
